Where two headings read alike, the source gives them in different places. Values belong to the compound of their own block, whether it stands above or below them.
Assays:
OVCAR-3 = experiment: Inhibition of proliferation of ovarian cancer cell line OVCAR-3 (CellTiter Glo); assay type: cell-based; settings: read-out: OVCAR-3 IC50
HCC1806 = experiment: Inhibition of proliferation of breast cancer cell line HCC1806 (CellTiter Glo); assay type: cell-based; settings: read-out: HCC1806 IC50
HCC1954 = experiment: Inhibition of proliferation of breast cancer cell line HCC1954 (CellTiter Glo); assay type: cell-based; settings: HCC1954 cells, 96 hours
KIF18A = KIF18A (Homo sapiens (Human), UniProt Q8NI77); experiment: Inhibition of KIF18A enzyme activity (ADP-Glo); assay type: biochemical; settings: 60 min at 25° C.
Description: The ADP-Glo method was used to test the enzymatic activity of KIF18A. The compound was diluted 3-fold with DMSO at a starting concentration of 3000 nM, for a total of ten concentrations, and tested in duplicate. Echo was used to transfer 25 nL of the diluted compound to a 384-well plate, and 2.5 μL of enzyme working solution was added. Plate was centrifuged at 1000 rpm for 1 min, and incubated at 25° C. for 10 min. 2.5 μL of ATP and substrate solution was added to start the reaction, and plate was incubated at 25° C. for 60 min. 4 μL of ADP-Glo solution was added to the 384-well plate, and plate was incubated at 25° C. for 40 min. 8 μL of detection solution was added and incubated at 25° C. for 40 min, and BMG was used to read the […] value. Inhibition rate was calculate according to the following formula: Inhibition rate (%)=(DMSO well−compound well)/(DMSO well−blank control well)×100%. The IC50 value of each compound was analyzed using the nonlinear regression method of XLFit 5.5.0 software. The formula is: Y=Bottom+(Top−Bottom)/(1+10^((Log IC50−X)*HillSlope)).

[1] = rat, in vivo, po, 3 mg/kg
[2] = Pharmacokinetic study in rats
[3] = Homo sapiens, OVCAR-3 cells, 96 hours, CellTiter Glo
[4] = Homo sapiens, HCC1806 cells, 96 hours, CellTiter Glo
[5] = male, SD, rat, plasma, po, 3 mg/kg

Chain of KIF18A (Q8NI77 whole entry): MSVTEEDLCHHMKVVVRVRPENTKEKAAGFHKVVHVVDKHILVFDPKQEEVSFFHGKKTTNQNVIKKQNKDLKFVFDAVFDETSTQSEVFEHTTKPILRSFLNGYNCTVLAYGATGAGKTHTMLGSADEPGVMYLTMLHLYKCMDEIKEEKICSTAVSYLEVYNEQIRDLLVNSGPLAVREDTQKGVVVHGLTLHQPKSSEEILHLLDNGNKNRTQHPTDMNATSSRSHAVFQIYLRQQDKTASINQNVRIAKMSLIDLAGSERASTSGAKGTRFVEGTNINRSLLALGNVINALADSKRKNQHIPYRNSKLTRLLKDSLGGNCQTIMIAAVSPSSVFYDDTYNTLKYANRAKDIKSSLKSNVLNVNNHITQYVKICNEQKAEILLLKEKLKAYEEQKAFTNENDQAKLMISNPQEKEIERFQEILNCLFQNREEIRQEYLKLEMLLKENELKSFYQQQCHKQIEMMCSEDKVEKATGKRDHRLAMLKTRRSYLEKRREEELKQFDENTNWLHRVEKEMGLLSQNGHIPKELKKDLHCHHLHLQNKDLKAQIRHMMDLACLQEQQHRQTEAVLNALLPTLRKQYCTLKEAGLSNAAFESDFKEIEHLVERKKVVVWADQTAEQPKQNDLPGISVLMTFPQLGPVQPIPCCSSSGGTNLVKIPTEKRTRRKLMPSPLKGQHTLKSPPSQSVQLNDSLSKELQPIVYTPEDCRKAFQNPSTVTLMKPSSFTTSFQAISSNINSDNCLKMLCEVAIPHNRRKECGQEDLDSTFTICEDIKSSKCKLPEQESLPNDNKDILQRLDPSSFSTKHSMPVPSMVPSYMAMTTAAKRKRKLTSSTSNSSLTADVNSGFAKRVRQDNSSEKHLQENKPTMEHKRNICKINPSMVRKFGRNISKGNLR

IC50 (OVCAR-3; [3]): < 75 nM
IC50 (HCC1954; Homo sapiens): < 75 nM
IC50 (HCC1806; [4]): < 200 nM
Structure (SMILES): CC(C)(CO)Nc1ccc(C(=O)Nc2cccc(S(=O)(=O)C3CCCC3)c2)c(N2CCC(=C(F)F)CC2)n1 [Compound 59]

IC50 (OVCAR-3; [3]): < 200 nM
IC50 (HCC1806; [4]): < 500 nM
Structure (SMILES): CC(C)(C)NS(=O)(=O)c1cccc(NC(=O)c2ccc(NC(C)(C)CO)nc2N2CCC(=C(F)F)CC2)c1 [Compound 62]

IC50 (OVCAR-3; [3]): < 50 nM
IC50 (HCC1954; Homo sapiens): < 50 nM
IC50 (HCC1806; [4]): < 75 nM
Structure (SMILES): CC(C)(C)NS(=O)(=O)c1cccc(NC(=O)c2ccc(S(=O)(=O)NC(C)(C)C)cc2N2CCC(=C(F)F)CC2)c1 [Compound 63]

IC50 (OVCAR-3; [3]): < 500 nM
IC50 (HCC1806; [4]): < 1000 nM
Structure (SMILES): Cc1cc(NC(=O)c2ccc(NS(=O)(=O)CCO)nc2N2CCC(=C(F)F)CC2)nc(N2CCC(F)(F)CC2)n1 [Compound 65]

IC50 (OVCAR-3; [3]): < 500 nM
IC50 (HCC1806; [4]): < 1000 nM
Structure (SMILES): CC(C)(C)NS(=O)(=O)c1cccc(NC(=O)c2ccc(S(=O)(=O)C3(C)COC3)cc2N2CCC(=C(F)F)CC2)c1 [Compound 67]

IC50 (OVCAR-3; [3]): < 50 nM
IC50 (HCC1954; Homo sapiens): < 50 nM
IC50 (HCC1806; [4]): < 100 nM
AUC(0-t) [2, 5]: 3330 ng·h/mL
Cmax [2, 5]: 227 ng/mL
Tmax [2, 5]: 6.67 h
half-life [2, 5]: 7.18 h
Structure (SMILES): Cc1cc(NC(=O)c2ccc(NS(=O)(=O)[C@H](C)CO)cc2N2CCC(=C(F)F)CC2)nc(N2CCC(F)(F)CC2)n1 [Compound 68]

IC50 (OVCAR-3; [3]): < 100 nM
IC50 (HCC1954; Homo sapiens): < 200 nM
IC50 (HCC1806; [4]): < 200 nM
Structure (SMILES): Cc1cc(NC(=O)c2ccc(NS(=O)(=O)[C@@H](C)CO)cc2N2CCC(=C(F)F)CC2)nc(N2CCC(F)(F)CC2)n1 [Compound 69]

IC50 (OVCAR-3; [3]): < 200 nM
IC50 (HCC1806; [4]): < 500 nM
Structure (SMILES): Cc1cc(NC(=O)c2ccc(NS(=O)(=O)C(F)CO)cc2N2CCC(=C(F)F)CC2)nc(N2CCC(F)(F)CC2)n1 (stereo not shown) [Compound 72]

IC50 (OVCAR-3; [3]): < 200 nM
IC50 (HCC1806; [4]): < 500 nM
Structure (SMILES): CC(C)(C)NS(=O)(=O)c1cccc(NC(=O)c2ccc(S(=O)(=O)C3COC3)cc2N2CCC(=C(F)F)CC2)c1 [Compound 73]

IC50 (OVCAR-3; [3]): < 1000 nM
IC50 (HCC1954; Homo sapiens): < 1000 nM
Structure (SMILES): Cc1nc(N2CCC(F)(F)CC2)nc(NC(=O)c2ccc(NS(=O)(=O)CCO)cc2N2CCC(=C(F)F)CC2)c1F [Compound 74]

IC50 (OVCAR-3; [3]): < 200 nM
Structure (SMILES): CCc1cc(NC(=O)c2ccc(NS(=O)(=O)CCO)cc2N2CCC(=C(F)F)CC2)nc(N2CCC(F)(F)CC2)n1 [Compound 75]

IC50 (OVCAR-3; [3]): < 50 nM
Structure (SMILES): N#Cc1ccc(NC(=O)c2ccc(NS(=O)(=O)CCO)cc2N2CCC(=C(F)F)CC2)nc1N1CCC(F)(F)CC1 [Compound 77]

IC50 (OVCAR-3; [3]): < 50 nM
AUC(0-t) [2, 5]: 2240 ng·h/mL
Cmax [2, 5]: 160 ng/mL
Tmax [2, 5]: 5.33 h
half-life [2, 5]: 7.61 h
Structure (SMILES): Cc1cc(NC(=O)c2ccc(NS(=O)(=O)CCO)cc2N2CCC(=C(F)F)CC2)nc(N2CCC(F)(F)CC2)c1F [Compound 79]

AUC(0-t) [2, 5]: 4520 ng·h/mL
Cmax [2, 5]: 363 ng/mL
Tmax [2, 5]: 4.67 h
half-life [2, 5]: 5.01 h
Structure (SMILES): Cc1cc(NC(=O)c2ccc(NS(=O)(=O)[C@H](C)CO)cc2N2CCC(=C(F)F)CC2)nc(N2CCC(F)(F)CC2)c1 [Compound 82]

Continued, compound first:

Structure (SMILES): Cc1cc(NC(=O)c2ccc(NS(=O)(=O)C(C)CO)cc2N2CCC3(CC2)CC3)nc(N2CCC(=C(F)F)CC2)n1 (stereo not shown) [Compound 3C]
IC50 (OVCAR-3; [3]): < 200 nM
IC50 (HCC1806; [4]): < 500 nM

Structure (SMILES): Cc1cc(NC(=O)c2ccc(NS(=O)(=O)C3(CO)CC3)cc2N2CCC3(CC2)CC3)nc(N2CCC(=C(F)F)CC2)n1 [Compound 13]
IC50 (OVCAR-3; [3]): < 500 nM
IC50 (HCC1806; [4]): < 500 nM

Structure (SMILES): Cc1cc(NC(=O)c2ccc(NS(=O)(=O)C3(CN4CC(O)C4)CC3)cc2N2CCC3(CC2)CC3)nc(N2CCC(F)(F)CC2)n1 [Compound 20]
IC50 (OVCAR-3; [3]): < 1000 nM
IC50 (HCC1806; [4]): < 1000 nM

Structure (SMILES): O=C(Nc1cccc(N2CC(F)(F)C2)n1)c1ccc(NS(=O)(=O)C2(CN3CCC3)CC2)cc1N1CCC2(CC1)CC2 [Compound 29]
IC50 (OVCAR-3; Homo sapiens, OVCAR-3, 96 h): < 500 nM
IC50 (HCC1806; Homo sapiens, HCC1806, 96 h): < 1000 nM

Structure (SMILES): C[C@@H]1CN(c2cccc(NC(=O)c3ccc(NS(=O)(=O)C4(CN5CCC5)CC4)cc3N3CCC4(CC3)CC4)n2)CCO1 [Compound 30]
IC50 (OVCAR-3; [3]): < 500 nM
IC50 (HCC1806; [4]): < 1000 nM

Structure (SMILES): C[C@@H]1CN(c2cccc(NC(=O)c3ccc(NS(=O)(=O)C4(CN5CC(O)C5)CC4)cc3N3CCC4(CC3)CC4)n2)CCO1 [Compound 32]
IC50 (OVCAR-3; [3]): < 1500 nM
IC50 (HCC1806; [4]): < 1000 nM

Structure (SMILES): Cc1cc(NC(=O)c2ccc(NS(=O)(=O)CCO)cc2N2CCC(=C(F)F)CC2)nc(N2CCC(F)(F)CC2)n1 [Compound 33]
IC50 (OVCAR-3): < 75 nM
IC50 (HCC1954): < 75 nM
IC50 (HCC1806): < 200 nM
IC50 (KIF18A): < 50 nM
AUC0-24 h [1]: 10273.88 ng·h/mL
Cmax [1]: 717.6 ng/mL
T1/2 [1]: 7.05 h
Tmax [1]: 8.00 h

Structure (SMILES): CC(C)=C1CCN(c2cc(NS(=O)(=O)CCO)ccc2C(=O)Nc2cc(C)nc(N3CCC(F)(F)CC3)n2)CC1 [Compound 35]
IC50 (OVCAR-3; [3]): < 500 nM

Structure (SMILES): C=C(C)C1CCN(c2cc(NS(=O)(=O)C3(C)CC3)ccc2C(=O)Nc2cccc(S(=O)(=O)NC(C)(C)C)c2)CC1 [Compound 36]
IC50 (OVCAR-3; [3]): < 200 nM

Structure (SMILES): CC(C)(C)NS(=O)(=O)c1cccc(NC(=O)c2ccc(NS(=O)(=O)C3(C)CC3)cc2N2CCC(=C(F)F)CC2)c1 [Compound 39]
IC50 (OVCAR-3; [3]): < 50 nM

Structure (SMILES): O=C(Nc1cccc(N2CCC(F)(F)CC2)n1)c1ccc(NS(=O)(=O)CCO)cc1N1CCC(=C(F)F)CC1 [Compound 40]
IC50 (OVCAR-3; [3]): < 50 nM

Structure (SMILES): CC(C)(C)NS(=O)(=O)c1cccc(NC(=O)c2ccc(NS(=O)(=O)CCO)cc2N2CCC(=C(F)F)CC2)c1 [Compound 41]
IC50 (OVCAR-3; [3]): < 50 nM

Structure (SMILES): CC(C)=C1CCN(c2nc(NCCO)ccc2C(=O)Nc2cccc(S(=O)(=O)C3CCCC3)c2)CC1 [Compound 44]
IC50 (OVCAR-3; [3]): < 2000 nM

Structure (SMILES): CP(=O)(c1cccc(NC(=O)c2ccc(NCCO)nc2N2CCC3(CC2)CC3)c1)C1CCCC1 (stereo not shown) [Compound 46]
IC50 (OVCAR-3; [3]): < 1500 nM

Structure (SMILES): Cc1cc(NC(=O)c2ccc(NS(=O)(=O)C3CC(O)C3)cc2N2CCC3(CC2)CC3)nc(N2CCC(F)(F)CC2)n1 (stereo not shown) [Compound 47]
IC50 (OVCAR-3; [3]): < 50 nM
IC50 (HCC1954; Homo sapiens): < 75 nM

Structure (SMILES): Cc1cc(NC(=O)c2ccc(NS(=O)(=O)CCO)cc2N2CCC(=C(F)F)CC2)nc(N2CCC(F)(F)CC2)c1 [Compound 48]
IC50 (OVCAR-3): < 50 nM
IC50 (HCC1954): < 50 nM
IC50 (HCC1806): < 50 nM
IC50 (KIF18A): < 50 nM
AUC0-24 h [1]: 1724.65 ng·h/mL
Cmax [1]: 153.57 ng/mL
T1/2 [1]: 4.91 h
Tmax [1]: 4.00 h

Structure (SMILES): Cc1cc(NC(=O)c2ccc(NS(=O)(=O)C3(CO)CC3)cc2N2CCC(=C(F)F)CC2)nc(N2CCC(F)(F)CC2)n1 [Compound 51]
IC50 (OVCAR-3; [3]): < 50 nM
IC50 (HCC1954; Homo sapiens): < 100 nM
IC50 (HCC1806; [4]): < 200 nM
AUC(0-t) [2, 5]: 424 ng·h/mL
Cmax [2, 5]: 43.3 ng/mL
Tmax [2, 5]: 4.67 h
half-life [2, 5]: 6.68 h

Structure (SMILES): Cc1cc(NC(=O)c2ccc(NS(=O)(=O)C(C)CO)cc2N2CCC(=C(F)F)CC2)nc(N2CCC(F)(F)CC2)n1 (stereo not shown) [Compound 52]
IC50 (OVCAR-3; [3]): < 50 nM
IC50 (HCC1806; [4]): < 100 nM

Structure (SMILES): C[C@@H]1CN(c2cccc(NC(=O)c3ccc(NS(=O)(=O)CCO)cc3N3CCC(=C(F)F)CC3)n2)CCO1 [Compound 53]
IC50 (OVCAR-3; [3]): < 50 nM
IC50 (HCC1954; Homo sapiens): < 50 nM

Structure (SMILES): Cc1cc(NC(=O)c2ccc(NS(=O)(=O)CCO)cc2N2CCC(=C(F)F)CC2)cc(N2CCC(F)(F)CC2)c1 [Compound 56]
IC50 (OVCAR-3): < 50 nM
IC50 (HCC1954): < 75 nM
IC50 (HCC1806): < 100 nM
IC50 (KIF18A): < 50 nM
AUC0-24 h ([2]; male SD rats, oral 3 mg/kg): 2051.53 ng·h/mL
Cmax ([2]; male SD rats, oral 3 mg/kg): 175.28 ng/mL
T1/2 ([2]; male SD rats, oral 3 mg/kg): 3.83 h
Tmax ([2]; male SD rats, oral 3 mg/kg): 4.00 h

Structure (SMILES): Cc1cc(NC(=O)c2ccc(NS(=O)(=O)C(C)(C)CO)cc2N2CCC(=C(F)F)CC2)nc(N2CCC(F)(F)CC2)n1 [Compound 60]
IC50 (OVCAR-3): < 50 nM
IC50 (HCC1954): < 75 nM
IC50 (HCC1806): < 200 nM
IC50 (KIF18A): < 150 nM
AUC0-24 h ([2]; male SD rats, oral 3 mg/kg): 1330.47 ng·h/mL
Cmax ([2]; male SD rats, oral 3 mg/kg): 90.70 ng/mL
T1/2 ([2]; male SD rats, oral 3 mg/kg): 7.47 h
Tmax ([2]; male SD rats, oral 3 mg/kg): 6.67 h

— patent US20250214965A1, “COMPOUND AS KIF18A INHIBITOR” (Hangzhou Innogate Pharma Co., Ltd., priority 2021, published 2025)
